Literature values, collected in patent US10034846B2, “Famciclovir and celecoxib combination therapy for functional somatic syndromes” (INNOVATIVE MED CONCEPTS, LLC, priority 2012, dated 2018).

System: fibromyalgia patients
Details: Kendall et al., J. Rheumatology (2004) 31, 783-784

SMILES: CC(C)[C@H](N)C(=O)OCCOCn1cnc2c(=O)[nH]c(N)nc21 [valacyclovir]
- Treatment of fibromyalgia patients: not successful
